Patent US7271171B2, “Adenosine A3 receptor modulators” (King Pharmaceuticals Research and Development, Inc., priority 1998, dated 2007)
Where two headings read alike, the source gives them in different places.

Tests used:
[1] = biological target: T1, human recombinant A3 adenosine receptor (Homo sapiens, UniProt P0DMS8); assay: Human cloned A3 adenosine receptor binding assay, [125I]AB-MECA, HEK-293 membranes; set-up: USA; host or cells: HEK-293; conditions: for Ki: HEK-293 membranes, [125I]AB-MECA, read-out: hA3 (Ki); for rA1/hA3 / rA2A/hA3: selectivity ratio of Ki values
T1 sequence (P0DMS8 1-318): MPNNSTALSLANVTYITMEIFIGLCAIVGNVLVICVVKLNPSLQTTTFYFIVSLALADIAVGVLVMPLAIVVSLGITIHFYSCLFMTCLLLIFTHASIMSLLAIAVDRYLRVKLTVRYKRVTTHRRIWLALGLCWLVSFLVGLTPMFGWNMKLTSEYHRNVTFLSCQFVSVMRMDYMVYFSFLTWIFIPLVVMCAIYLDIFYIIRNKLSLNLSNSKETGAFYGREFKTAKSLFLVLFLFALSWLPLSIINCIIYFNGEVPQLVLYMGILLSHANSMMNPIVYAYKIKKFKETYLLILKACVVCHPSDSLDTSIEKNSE

rA1 adenosine receptor = biological target: T2, rA1 adenosine receptor (Rattus norvegicus, UniProt P25099); assay: Rat A1 adenosine receptor binding assay, [3H]CHA displacement, rat brain membranes
T2 construct: membranes of rat brain (150-200 μg- of protein/assay); from tissue; host or cells: whole brain of male Wistar rats
T2 sequence (P25099 1-326): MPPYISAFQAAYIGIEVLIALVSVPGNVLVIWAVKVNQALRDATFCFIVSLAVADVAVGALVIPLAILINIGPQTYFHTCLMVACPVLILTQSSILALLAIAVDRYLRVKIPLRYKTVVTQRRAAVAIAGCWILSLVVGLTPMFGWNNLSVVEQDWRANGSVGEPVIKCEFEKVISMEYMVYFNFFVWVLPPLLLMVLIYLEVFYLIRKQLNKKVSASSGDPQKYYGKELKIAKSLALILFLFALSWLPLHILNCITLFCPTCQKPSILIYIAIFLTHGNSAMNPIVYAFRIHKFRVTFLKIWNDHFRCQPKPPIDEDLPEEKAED
Description: (§1) Male Wistar rats (200-250 g) were decapitated and the whole brain and striatum dissected on ice. […] The homogenate was centrifuged at 48,000 for 10 min, and the pellet was resuspended in the same buffer containing 2 IU/mL adenosine deaminase. After 30 min incubation at 37° C., the membranes were centrifuged and pellets were stored at −80° C. Prior to freezing, an aliquot of homogenate was removed for protein assay with bovine albumin as reference standard. Binding assays were performed on rat brain and striatum membranes respectively, in the presence of 10 mM MgCl2 at 25° C.
(§2) Separation of bound from free radio ligand was performed by rapid filtration through Whatman GF/B filters which were washed three times with ice-cold buffer. Filter bound radioactivity was measured by scintillation spectrometry after addition of 5 mL of Aquassure. […] Ki values were calculated from the Cheng-Prusoff equation. All binding data were analyzed using the nonlinear regression curve-fitting computer program LIGAND.

rA2A adenosine receptor = biological target: T3, rA2A adenosine receptor (Rattus norvegicus, UniProt P30543); assay: Rat A2A adenosine receptor binding assay, [3H]SCH58261 displacement, rat striatum membranes
T3 construct: membranes of rat striatum (80-100 μmg of protein/assay); from tissue; host or cells: striatum of male Wistar rats
Description: as §1, §2

[2] = rat striatum membranes, [3H]SCH58261, read-out: rA2A (Ki)

T3 sequence (P30543 whole entry): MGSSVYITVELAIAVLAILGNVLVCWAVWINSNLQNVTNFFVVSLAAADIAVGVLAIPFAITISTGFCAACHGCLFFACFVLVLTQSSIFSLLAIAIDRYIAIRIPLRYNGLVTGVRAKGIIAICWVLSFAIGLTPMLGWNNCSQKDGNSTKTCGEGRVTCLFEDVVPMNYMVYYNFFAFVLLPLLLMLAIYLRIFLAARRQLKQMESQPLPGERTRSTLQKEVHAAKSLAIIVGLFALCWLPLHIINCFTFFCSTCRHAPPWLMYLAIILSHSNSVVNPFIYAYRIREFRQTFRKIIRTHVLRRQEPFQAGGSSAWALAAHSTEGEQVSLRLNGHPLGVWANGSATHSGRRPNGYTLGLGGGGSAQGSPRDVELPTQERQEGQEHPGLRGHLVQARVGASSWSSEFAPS

Row | SMILES | Ki [1] [nM] | affinity and selectivity for the A3 receptor subtype (in words) ([1]; discussion of Table 1) | rA1/hA3 [1] | rA2A/hA3 [1] | Ki (rA1 adenosine receptor) [nM] | Ki (rA2A adenosine receptor; [2]) [nM] | affinity at human adenosine A3 receptor subtype (in words) ([1]; discussion of Table 1) | Ki (rA2A adenosine receptor) [nM] | affinity for A2A adenosine receptors (in words) (rA2A adenosine receptor) | Ki (rA2A adenosine receptor; read-out: rA2A (Ki)) [nM]
1 | CCn1cc2c(nc(NC(=O)Nc3ccc(OC)cc3)n3nc(-c4ccco4)nc23)n1 [Compound 45, 5-[[(4-Methoxyphenyl)amino]carbonyl]amino-8-ethyl-2-(2-furyl)-pyrazolo[4,3-e]1,2,4-triazolo[1,5-]pyrimidine] | 0.28 | high affinity and selectivity | >35,714 | >35,714 |  |  |  |  |  | 
2 | CC(C)CCn1cc2c(nc(NC(=O)Nc3cccc(Cl)c3)n3nc(-c4ccco4)nc23)n1 [Compound 50, 5-[[(3-Chlorophenyl)amino]carbonyl]amino-8-isopentyl-2-(2-furyl)-pyrazolo[4,3-e]1,2,4-triazolo[1,5-c]pyrimidine] | 81.1 |  | 20 | 15 | 1650 | 1200 |  |  |  | 
3 | CCCCn1cc2c(nc(NC(=O)Nc3cccc(Cl)c3)n3nc(-c4ccco4)nc23)n1 [Compound 48, 5-[[(3-Chlorophenyl)amino]carbonyl]amino-8-butyl-2-(2-furyl)-pyrazolo[4,3-e]1,2,4-triazolo[1,5-c]pyrimidine] | 0.75 |  | 2,020 | 664 | 1520 | 498 |  |  |  | 
4 | Cn1cc2c(nc(N)n3nc(-c4ccco4)nc23)n1 [Compound 34, 5-Amino-8-methyl-2-(2-furyl)-pyrazolo[4,3-e]1,2,4-triazolo[1,5-c]pyrimidine] | 557 |  | 0.56 | 0.05 |  | 30.6 |  |  |  | 
5 | O=C(Nc1cccc(Cl)c1)Nc1nc2nn(CCCc3ccccc3)cc2c2nc(-c3ccco3)nn12 [Compound 56, 5-[[(3-Chlorophenyl)amino]carbonyl]amino-8-(3-(phenyl)propyl)-2-(2-furyl)-pyrazolo[4,3-e]1,2,4-triazolo[1,5-c]pyrimidine] | 42.6 |  | >234 | 75 | > 10000 | 3200 |  |  |  | 
6 | CCCn1cc2c(nc(NC(=O)Nc3ccc(OC)cc3)n3nc(-c4ccco4)nc23)n1 [Compound 47, 5-[[(4-Methoxyphenyl)amino]carbonyl]amino-8-propyl-2-(2-furyl)-pyrazolo[4,3-e]1,2,4-triazolo[1,5-c]pyrimidine] |  |  |  |  | > 10000 |  |  |  |  | 
7 | Cn1cc2c(nc(NC(=O)Nc3cccc(Cl)c3)n3nc(-c4ccco4)nc23)n1 [Compound 42, 5-[[(3-Chlorophenyl)amino]carbonyl]amino-8-methyl-2-(2-furyl)-pyrazolo[4,3-e]1,2,4-triazolo[1,5-c]pyrimidine] | 0.22 |  | 22,931 | >45,454 | 5050 | > 10000 |  |  |  | 
8 | CC(C)CCn1cc2c(nc(N)n3nc(-c4ccco4)nc23)n1 [Compound 38, 5-Amino-8-isopentyl-2-(2-furyl)-pyrazolo[4,3-e]1,2,4-triazolo[1,5-c]pyrimidine] | 1160 |  |  |  | 8.09 |  | low affinity |  |  | 
9 | COc1ccc(NC(=O)Nc2nc3nn(CCC(C)C)cc3c3nc(-c4ccco4)nn23)cc1 [Compound 51, 5-[[(4-Methoxyphenyl)amino]carbonyl]amino-8-isopentyl-2-(2-furyl)-pyrazolo[4,3-e]1,2,4-triazolo[1,5-c]pyrimidine] | 29.6 |  | 16 | 13 | 476 | 376 |  |  |  | 
10 | COc1ccc(NC(=O)Nc2nc3nn(CCCc4ccccc4)cc3c3nc(-c4ccco4)nn23)cc1 [Compound 57, 5-[[(4-Methoxyphenyl)amino]carbonyl]amino-8-(3(phenyl)propyl)-2-(2-furyl)-pyrazolo[4,3-e]1,2,4-triazolo[1,5-c]pyrimidine] | 19.8 |  | 76.4 | >504 | 1510 | > 10000 |  |  |  | 
11 | CCCCn1cc2c(nc(N)n3nc(-c4ccco4)nc23)n1 [Compound 37, 5-Amino-8-butyl-2-(2-furyl)-pyrazolo[4,3-e]1,2,4-triazolo[1,5-c]pyrimidine] | 1110 |  | 0.02 | 0.003 | 26.3 |  |  |  |  | 
12 | CCCCn1cc2c(nc(NC(=O)Nc3ccc(OC)cc3)n3nc(-c4ccco4)nc23)n1 [Compound 49, 5-[[(4-Methoxyphenyl)amino]carbonyl]amino-8-butyl-2-(2-furyl)-pyrazolo[4,3-e]1,2,4-triazolo[1,5-c]pyrimidine] | 0.3 |  |  |  | 2100 |  |  | 649 |  | 
13 | COc1ccc(NC(=O)Nc2nc3nn(CCc4ccccc4)cc3c3nc(-c4ccco4)nn23)cc1 [Compound 55, 5-[[(4-Methoxyphenyl)amino]carbonyl]amino-8-(2-(phenyl)ethyl)-2-(2-furyl)-pyrazolo[4,3-e]1,2,4-triazolo[1,5-c]pyrimidine] | 1.47 |  | 872 | 951 | 1280 | 1400 |  |  |  | 
14 | COc1ccc(NC(=O)Nc2nc3nn(CC=C(C)C)cc3c3nc(-c4ccco4)nn23)cc1 [Compound 53, 5-[[(4-Methoxyphenyl)amino]carbonyl]amino-8-(2-isopentenyl)-2-(2-furyl)-pyrazolo[4,3-e]1,2,4-triazolo[1,5-c]pyrimidine] | 29.6 |  | 179 | >338 | 5300 | > 10000 |  |  |  | 
15 | CC(C)=CCn1cc2c(nc(N)n3nc(-c4ccco4)nc23)n1 [Compound 39, 5-Amino-8-(2-isopentenyl)-2-(2-furyl)-pyrazolo[4,3-e]1,2,4-triazolo[1,5-c]pyrimidine] | 887 |  | 0.01 | 0.001 | 10.1 | 1.45 |  |  |  | 
16 | CCCn1cc2c(nc(N)n3nc(-c4ccco4)nc23)n1 [Compound 36, 5-Amino-8-propyl-2-(2-furyl)-pyrazolo[4,3-e]1,2,4-triazolo[1,5-c]pyrimidine] | 613 |  | 0.22 | 0.03 | 139 | 20.2 |  |  |  | 
17 | O=C(Cc1ccccc1)Nc1nc2nn(CCCc3ccccc3)cc2c2nc(-c3ccco3)nn12 [Compound 59, 5-[(Benzyl)carbonyl]amino-8-(3-(phenyl)propyl)-2-(2-furyl)-pyrazolo[4,3-e]1,2,4-triazolo[1,5-c]pyrimidine] | 121 |  | 2.8 | 3.3 | 345 | 400 |  |  |  | 
18 | CCn1cc2c(nc(NC(=O)Nc3cccc(Cl)c3)n3nc(-c4ccco4)nc23)n1 [Compound 44, 5-[[(3-Chlorophenyl)amino]carbonyl]amino-8-ethyl-2-(2-furyl)-pyrazolo[4,3-e]1,2,4-triazolo[1,5-c]pyrimidine] | 2.09 |  | 1,291 | 1,339 | 2700 | 2800 |  |  |  | 
19 | Nc1nc2nn(CCCc3ccccc3)cc2c2nc(-c3ccco3)nn12 [Compound 41, 5-Amino-8-(3-(phenyl)propyl)-2-(2-furyl)-pyrazolo[4,3-e]1,2,4-triazolo[1,5-c]pyrimidine] | 2670 |  |  |  | 11.1 | 0.59 | low affinity |  |  | 
20 | O=C(Nc1cccc(Cl)c1)Nc1nc2nn(CCc3ccccc3)cc2c2nc(-c3ccco3)nn12 [Compound 54, 5-[[(3-Chlorophenyl)amino]carbonyl]amino-8-(2-(phenyl)ethyl)-2-(2-furyl)-pyrazolo[4,3-e]1,2,4-triazolo[1,5-c]pyrimidine] | 13.3 |  | 79 | 128 | 1050 | 1700 |  |  |  | 
21 | CC(C)=CCn1cc2c(nc(NC(=O)Nc3cccc(Cl)c3)n3nc(-c4ccco4)nc23)n1 [Compound 52] | 147 |  | 25.4 | 9.8 | 3740 | 1450 |  |  |  | 
22 | CCCn1cc2c(nc(NC(=O)Nc3cccc(Cl)c3)n3nc(-c4ccco4)nc23)n1 [Compound 46, 5-[[(3-Chlorophenyl)amino]carbonyl]amino-8-propyl-2-(2-furyl)-pyrazolo[4,3-e]1,2,4-triazolo[1,5-c]pyrimidine] | 0.49 |  | 3,228 | >20,408 | 1580 | < 10000 |  |  |  | 
23 | Nc1nc2nn(CCc3ccccc3)cc2c2nc(-c3ccco3)nn12 [Compound 40, 5-Amino-8-(2-(phenyl)ethyl)-2-(2-furyl)-pyrazolo[4,3-e]1,2,4-triazolo[1,5-c]pyrimidine] | 2780 |  |  |  | 2.16 |  | low affinity |  | great affinity | 0.7
